As a reminder, the IC50 is the concentration needed to halve the response being measured. Read a low IC50 as greater potency.

For eleven compounds, IC50 results are on record in ChEMBL document CHEMBL6121064, “Recent Developments in 14-3-3 Stabilizers for Regulating Protein-Protein Interactions: An Update” (J Med Chem, 2025).

For one assay, the target named is T1, Estrogen receptor (Homo sapiens, UniProt P03372).
T1 sequence (P03372 whole entry): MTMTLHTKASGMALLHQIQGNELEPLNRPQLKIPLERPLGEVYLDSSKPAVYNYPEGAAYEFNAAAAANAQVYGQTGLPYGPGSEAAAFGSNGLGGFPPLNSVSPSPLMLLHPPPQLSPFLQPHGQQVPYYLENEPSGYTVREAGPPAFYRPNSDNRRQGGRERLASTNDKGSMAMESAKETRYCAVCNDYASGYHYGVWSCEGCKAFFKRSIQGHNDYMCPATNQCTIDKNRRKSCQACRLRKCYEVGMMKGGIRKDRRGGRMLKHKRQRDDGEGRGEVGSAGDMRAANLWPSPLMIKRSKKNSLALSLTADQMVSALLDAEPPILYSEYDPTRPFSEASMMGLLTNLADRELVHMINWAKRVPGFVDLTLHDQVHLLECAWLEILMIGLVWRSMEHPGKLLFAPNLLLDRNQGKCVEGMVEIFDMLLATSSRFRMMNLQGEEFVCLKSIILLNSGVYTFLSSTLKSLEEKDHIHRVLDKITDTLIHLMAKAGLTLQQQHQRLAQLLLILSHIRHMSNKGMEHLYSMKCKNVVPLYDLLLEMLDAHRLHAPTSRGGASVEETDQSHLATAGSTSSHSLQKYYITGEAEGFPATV
In words: Inhibition of ERalpha (unknown origin).

Assay [1] deals with RAF proto-oncogene serine/threonine-protein kinase (Homo sapiens, UniProt P04049). The assay can be described thus: Inhibition of C-RAF (unknown origin).
RAF proto-oncogene serine/threonine-protein kinase, sequence (P04049 whole entry): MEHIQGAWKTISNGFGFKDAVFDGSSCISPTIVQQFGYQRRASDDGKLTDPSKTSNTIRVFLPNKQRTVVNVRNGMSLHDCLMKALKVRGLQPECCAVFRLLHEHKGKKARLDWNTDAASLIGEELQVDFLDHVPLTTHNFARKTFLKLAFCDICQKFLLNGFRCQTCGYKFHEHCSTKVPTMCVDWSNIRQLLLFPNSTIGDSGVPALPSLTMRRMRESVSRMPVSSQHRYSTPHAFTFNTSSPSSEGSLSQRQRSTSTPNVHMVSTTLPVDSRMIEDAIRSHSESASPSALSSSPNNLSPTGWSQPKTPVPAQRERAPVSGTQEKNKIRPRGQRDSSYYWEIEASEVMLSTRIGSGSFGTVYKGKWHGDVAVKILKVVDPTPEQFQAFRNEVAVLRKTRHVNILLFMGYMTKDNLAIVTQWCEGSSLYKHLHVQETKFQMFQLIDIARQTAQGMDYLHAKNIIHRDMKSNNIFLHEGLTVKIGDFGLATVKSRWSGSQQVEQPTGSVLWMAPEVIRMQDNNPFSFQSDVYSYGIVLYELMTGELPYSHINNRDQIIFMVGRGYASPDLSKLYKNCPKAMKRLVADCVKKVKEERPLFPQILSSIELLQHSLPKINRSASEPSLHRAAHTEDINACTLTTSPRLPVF
The subject of the next assay is HL-60. The assay can be described thus: cells. The conditions noted are these: Homo sapiens, HL-60, 72 h.
For another assay, the system named is MIA PaCa-2. In words: cells. The conditions noted are these: Homo sapiens, MIA PaCa-2, 48 h.
The target in assay [2] is T2, 14-3-3 protein beta/alpha (Homo sapiens, UniProt P31946).
T2 sequence (P31946 whole entry): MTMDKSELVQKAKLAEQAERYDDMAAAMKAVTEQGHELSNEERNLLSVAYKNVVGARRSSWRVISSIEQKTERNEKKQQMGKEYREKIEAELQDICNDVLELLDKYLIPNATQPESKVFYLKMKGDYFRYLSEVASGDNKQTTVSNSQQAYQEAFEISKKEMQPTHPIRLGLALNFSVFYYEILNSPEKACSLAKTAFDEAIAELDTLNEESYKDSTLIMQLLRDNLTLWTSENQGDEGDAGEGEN

Assay [3] has as its target T2, 14-3-3 protein beta/alpha. The source holds these as a separate data set.

Description for HL-60: Antiproliferative activity against human HL-60 cells assessed as reduction in cell growth incubated for 72 hrs by MTT assay
Description for MIA PaCa-2: Antiproliferative activity against human MIA PaCa-2 cells assessed as reduction in cell growth measured after 48 hrs by MTT assay

Take `O=C(C1=C(O)C(=O)N(c2ccc(O)c(C(=O)O)c2)C1c1ccc([N+](=O)[O-])cc1)c1ccccc1` (stereo not drawn): the IC50 on Estrogen receptor came to 80 µM.
In turn, `CC(C)CC(NC(=O)[C@H](O)[C@H](N)Cc1ccccc1)C(=O)O` (stereo partly drawn) had an IC50 at Estrogen receptor of 1.8 µM.
In assay [1], `CN(C)CCSSCCC(=O)N1CCC(O)(c2cccc(C(F)(F)F)c2)CC1` returned an IC50 of 77 µM.
Turning to `CN(C)CCSSCCNC(=O)C1CCN(C(=O)C(C)(C)Oc2ccc(Cl)cc2)CC1`, the half-maximal inhibitory concentration (IC50) at Estrogen receptor is 19 µM; in assay [1] it was 81 µM.
In the same order, the values of `CN(C)CCSSCCNC(=O)C1CCCN(C(=O)c2ccc(Oc3ccccc3)cc2)C1` (stereo not drawn) are 426 µM and 426 µM.
`COc1ccc2cc([C@H](C)C(=O)N3CCC(C(=O)NCCSSCCN(C)C)CC3)ccc2c1`: the IC50 in assay [1] came out at 246 µM.
For `COC[C@H]1CC[C@@H]2/C1=C\[C@@]1(C)CCC(C(C)C)=C1C(O[C@@H]1O[C@@H](CNCc3ccccc3)[C@H](O)[C@@H](O)[C@@H]1O)[C@H](O)[C@@H]2C` (stereo partly drawn), the IC50 in the assay with HL-60 was determined as 0.25 µM.
In the assay on MIA PaCa-2, `COC[C@H]1CC[C@@H]2/C1=C\[C@@]1(C)CCC(C(C)C)=C1C(O[C@@H]1O[C@H]3COC(C)(C)O[C@@H]3[C@@H](O)[C@@H]1O)[C@H](O)[C@@H]2C` (stereo partly drawn) yielded an IC50 of 18 µM.
For the compound `N=C(N)c1cc(-c2cccc(NC(=O)C3(Oc4ccc(Cl)cc4)CCC(N)CC3)c2)cs1` (stereo not drawn), inhibition in assay [2] was half-maximal at 151 µM (IC50).
The compound `O=Cc1ccc(-n2ccnc2-c2ccc(F)cc2F)cc1Br` registered a concentration for half-maximal inhibition (IC50) in assay [3] of 250 µM.
Take `NCCCNCCS` [WR-1065]: inhibition on Estrogen receptor was half-maximal at 2.8 µM (IC50).
